Assay [1] deals with Dual specificity tyrosine-phosphorylation-regulated kinase 1A (Rattus norvegicus, UniProt Q63470). Briefly: Inhibition of GST-fused rat recombinant DYRK1A expressed in Escherichia coli assessed as [gamma-33P]ATP incorporation after 10 mins by scintillation counting.
Assay [2] can be described thus: Inhibition of porcine brain CK1 assessed as [gamma-33P]ATP incorporation after 10 mins by scintillation counting. Further details: species or system Sus scrofa.
The nature of assay [3]: Inhibition of Marthasterias glacialis CDK1/cyclin-B assessed as [gamma-33P]ATP incorporation after 10 mins by scintillation counting.
For assay [4], the target named is Glycogen synthase kinase-3 (Sus scrofa, UniProt B2LUN4+I6LNT8). Kind of assay: Inhibition of porcine brain GSK3alpha/beta assessed as [gamma-33P]ATP incorporation after 30 mins by scintillation counting.
In assay [5] the target is Cyclin-dependent kinase 5/CDK5 activator 1 (Homo sapiens, UniProt Q00535). Kind of assay: Inhibition of GST-fused CDK5/p25 expressed in Escherichia coli assessed as [gamma-33P]ATP incorporation after 10 mins by scintillation counting.
Chain of Cyclin-dependent kinase 5/CDK5 activator 1 (Q00535 whole entry, the tested form may be a part): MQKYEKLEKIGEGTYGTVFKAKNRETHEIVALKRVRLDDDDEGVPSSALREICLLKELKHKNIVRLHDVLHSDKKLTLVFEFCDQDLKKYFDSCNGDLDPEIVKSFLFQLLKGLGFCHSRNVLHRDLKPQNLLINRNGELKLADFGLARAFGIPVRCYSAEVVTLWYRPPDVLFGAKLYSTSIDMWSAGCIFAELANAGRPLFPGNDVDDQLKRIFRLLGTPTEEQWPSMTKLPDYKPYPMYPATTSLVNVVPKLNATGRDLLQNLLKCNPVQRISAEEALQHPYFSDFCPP
Chain of Cyclin-dependent kinase 5/CDK5 activator 1 (Q15078 whole entry, further chain, the tested form may be a part): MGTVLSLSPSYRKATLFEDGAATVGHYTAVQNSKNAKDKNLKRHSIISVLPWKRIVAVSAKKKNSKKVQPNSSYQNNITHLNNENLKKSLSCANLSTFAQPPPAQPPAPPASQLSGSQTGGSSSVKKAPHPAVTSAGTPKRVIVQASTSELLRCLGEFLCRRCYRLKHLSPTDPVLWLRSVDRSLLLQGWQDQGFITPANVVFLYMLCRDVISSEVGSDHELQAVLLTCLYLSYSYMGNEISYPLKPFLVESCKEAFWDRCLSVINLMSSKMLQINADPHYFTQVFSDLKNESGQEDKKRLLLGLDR
A short description of assay [6]: Antiproliferative activity against human fibroblast after 72 hrs by imaging analysis. In kind it is cell-based.
A short description of assay [7]: Antiproliferative activity against human NCI/ADR cells after 72 hrs by imaging analysis. The settings on record: NCI/ADR-RES. In kind it is functional, cell-based.
Assay [8] concerns Caco-2. Kind of assay: Antiproliferative activity against human Caco-2 cells after 72 hrs by imaging analysis. It counts as functional, cell-based. The following applies: Caco-2, 72 h.
For assay [9], the system named is HCT-116. Briefly: Antiproliferative activity against human HCT116 cells after 72 hrs by imaging analysis. In kind it is functional, cell-based. The following applies: HCT-116, 72 h.
Assay [10] deals with Huh-7. Briefly: Antiproliferative activity against human HuH7 cells after 72 hrs by imaging analysis. It counts as functional, cell-based. The settings on record: Huh-7, 72 h.
The subject of assay [11] is PC-3. Briefly: Antiproliferative activity against human PC3 cells after 72 hrs by imaging analysis. In kind it is functional, cell-based. The settings on record: PC-3, 72 h.

Consider `O=C1Nc2ccc([N+](=O)[O-])cc2/C1=C1/Nc2ccc(Br)cc2/C1=N/O`, for which the half-maximal inhibitory concentration (IC50) in [1] is over 10 µM; in assay [2] it was over 10 µM; in assay [3], 0.16 µM; in assay [4] it was 0.055 µM; in [5], 0.05 µM.

In the case of `O=C1C(c2c(O)[nH]c3ccc([N+](=O)[O-])cc23)=Nc2ccccc21`, the half-inhibitory concentration (IC50) is over 10 µM in assay [1]; over 10 µM in [2]; 40 µM in assay [3]; 19 µM in assay [4]; 25 µM in assay [5].

As for `O=Nc1c(-c2c(O)[nH]c3ccc([N+](=O)[O-])cc23)[nH]c2ccccc12`, the IC50 in assay [1] is 1.3 µM; in [2], over 10 µM; in [3], 0.019 µM; in assay [4], 0.0021 µM; in assay [5], 0.006 µM.

As to `CC(=O)Nc1ccc2c(c1)/C(=C1/Nc3ccccc3/C1=N\O)C(=O)N2`, the concentration for half-maximal inhibition (IC50) was 15 µM in [1]; 0.4 µM in assay [2]; 0.088 µM in [3]; 0.35 µM in assay [4]; 0.16 µM in assay [5].

On to `CC(=O)Nc1ccc2c(c1)/C(=C1/Nc3ccccc3C1=O)C(=O)N2`, for which the half-inhibitory concentration (IC50) was over 25 µM in assay [6]; 2.5 µM in assay [1]; 10 µM in assay [7]; 5 µM in assay [8]; 8 µM in [2]; 2 µM in assay [9]. Also, the concentration for half-maximal inhibition (IC50) in assay [3] worked out at 0.05 µM; in [10] it was 2 µM; in [11], 2 µM; in assay [4] it was 0.0075 µM; in assay [5], 0.018 µM.

Take `O=C1Nc2cc([N+](=O)[O-])ccc2/C1=C1/Nc2ccccc2C1=O`: the IC50 in assay [6] is over 25 µM; in assay [7], 2 µM; in assay [8], 3 µM; in assay [2], over 10 µM; in assay [9], 5 µM; in assay [3], over 10 µM. Further, the IC50 in assay [10] is over 25 µM; in assay [11] it was 15 µM; in [4], 60 µM; in assay [5], over 10 µM.

As for `Nc1ccc2c(c1)NC(=O)/C2=C1\Nc2ccccc2\C1=N/O`, the IC50 is 0.5 µM in assay [2], 1 µM in assay [3], 0.18 µM in assay [4] and 0.2 µM in assay [5].

For the compound `Nc1ccc2c(c1)/C(=C1/Nc3ccccc3C1=O)C(=O)N2`, the half-inhibitory concentration (IC50) is over 25 µM in assay [6]; 2.5 µM in assay [1]; 20 µM in assay [7]; 2 µM in assay [8]; 0.65 µM in assay [2]; 15 µM in assay [9]. Moreover, the half-inhibitory concentration (IC50) amounted to 1.5 µM in assay [3]; 6 µM in assay [10]; 5 µM in assay [11]; 0.08 µM in assay [4]; 0.59 µM in [5].

Consider `O=C1Nc2cc([N+](=O)[O-])ccc2/C1=C1/Nc2ccccc2/C1=N\O`, for which the half-maximal inhibitory concentration (IC50) in assay [2] came to 0.6 µM; in assay [3] it was 0.18 µM; in assay [4] it was 0.04 µM; in assay [5], 0.12 µM.

As for `CC(=O)Nc1ccc2c(c1)/C(=C1/Nc3ccc(Br)cc3/C1=N\O)C(=O)N2`, the IC50 in [1] was over 10 µM; in assay [2] it was over 10 µM; in assay [3], 1.4 µM; in assay [4], 40 µM; in assay [5], 3.3 µM.

With `O=C1Nc2c(Br)cc([N+](=O)[O-])cc2/C1=C1/Nc2ccccc2/C1=N\O`, the IC50 in assay [1], in assay [2], in assay [3], in assay [4] and in assay [5] was over 10 µM throughout.

As to `O=C1Nc2ccccc2/C1=C1\C(=O)Nc2ccc([N+](=O)[O-])cc21`, the IC50 is over 25 µM in assay [6]; 25 µM in assay [7]; over 25 µM in assay [8]; over 25 µM in [9]; over 25 µM in assay [10]; over 25 µM in assay [11].

For the compound `O=C1Nc2ccc([N+](=O)[O-])cc2/C1=C1/Nc2ccc(Br)cc2C1=O`, the IC50 in assay [1], in assay [2], in assay [3], in assay [4] and in [5] was over 10 µM in each case.

`Nc1ccc2c(c1)/C(=C1/Nc3ccccc3/C1=N\O)C(=O)N2`: the IC50 in assay [1] came out at 4.2 µM; in assay [2] it was 0.13 µM; in assay [3], 0.1 µM; in assay [4] it was 0.36 µM; in [5], 0.15 µM.

Consider `CC(=O)Nc1ccc2c(c1)/C(=C1/Nc3ccc(Br)cc3C1=O)C(=O)N2`, for which the concentration for half-maximal inhibition (IC50) is 7.3 µM in assay [1]; over 10 µM in assay [2]; 0.055 µM in assay [3]; 0.073 µM in [4]; 0.11 µM in assay [5].

As for `O=C1Nc2c(Br)cc([N+](=O)[O-])cc2/C1=C1/Nc2ccc(Br)cc2/C1=N\O`, the IC50 in assay [1], in assay [2], in assay [3], in assay [4] and in [5] was over 10 µM in each case.

For the compound `O=C1Nc2c(Br)cc([N+](=O)[O-])cc2/C1=C1/Nc2ccccc2C1=O`, the IC50 in assay [1], in [2], in assay [3], in assay [4] and in [5] was over 10 µM in each case.

On to `O=C1Nc2c(Br)cc([N+](=O)[O-])cc2/C1=C1/Nc2ccc(Br)cc2C1=O`, for which the IC50 in assay [1], in [2], in assay [3], in assay [4] and in [5] was over 10 µM throughout.

Take `O=C1Nc2cc([N+](=O)[O-])ccc2/C1=C1/Nc2ccc(Br)cc2C1=O`: the 50% inhibitory concentration (IC50) in [2], in assay [3], in assay [4] and in [5] was over 10 µM each time.

Consider `Nc1ccc2c(c1)/C(=C1/Nc3ccc(Br)cc3/C1=N\O)C(=O)N2`, for which the IC50 was over 10 µM in [1]; over 10 µM in [2]; 0.41 µM in assay [3]; 6.6 µM in [4]; 1 µM in assay [5].

Consider `O=C1Nc2cc([N+](=O)[O-])ccc2/C1=C1/Nc2ccc(Br)cc2/C1=N\O`, for which the half-maximal inhibitory concentration (IC50) in assay [2] stood at 18 µM; in assay [3], 7 µM; in assay [4], 0.7 µM; in assay [5] it was 0.3 µM.

In the case of `Nc1ccc2c(c1)NC(=O)/C2=C1\Nc2ccccc2C1=O`, the half-inhibitory concentration (IC50) in assay [6] was over 25 µM; in assay [7], 25 µM; in assay [8] it was 5 µM; in assay [2], 16 µM; in assay [9] it was over 25 µM; in [3], 30 µM. Also, the IC50 in assay [10] is over 25 µM; in [11], 25 µM; in assay [4], 0.36 µM; in [5], 4 µM.

For the compound `Nc1ccc2c(c1)/C(=C1/Nc3ccc(Br)cc3C1=O)C(=O)N2`, the IC50 is over 10 µM in assay [1]; 2.7 µM in [2]; 0.6 µM in [3]; 0.44 µM in assay [4]; 0.55 µM in assay [5].

Turning to `Nc1ccc2c(c1)/C(=C1\C(=O)Nc3ccccc31)C(=O)N2` [(3'Z)-5-AMINOISOINDIGO], the IC50 in [6] was over 25 µM; in assay [7] it was 25 µM; in [8], over 25 µM; in assay [9] it was over 25 µM; in assay [10], over 25 µM; in assay [11], 25 µM.

`CC(=O)O[C@H]1C(=O)[C@@]2(C)[C@H]([C@H](OC(=O)c3ccccc3)[C@]3(O)C[C@H](OC(=O)[C@H](O)[C@@H](NC(=O)c4ccccc4)c4ccccc4)C(C)=C1C3(C)C)[C@]1(OC(C)=O)CO[C@@H]1C[C@@H]2O` [PACLITAXEL]: the IC50 in assay [6] is 0.03 µM; in assay [7], 0.004 µM; in [8], 0.02 µM; in [9], under 0.0008 µM; in [10], 0.008 µM; in [11], under 0.0008 µM.

Regarding `CC[C@H](CO)Nc1nc(NCc2ccccc2)c2ncn(C(C)C)c2n1` [SELICICLIB], the IC50 in [6] was over 25 µM; in [7] it was 6 µM; in assay [9], 5 µM; in assay [10], 5 µM; in assay [11] it was 8 µM.

Broadly, the IC50 is the concentration at which inhibition is half-maximal.

Values taken from ChEMBL document CHEMBL1152528, “Synthesis and kinase inhibitory activity of novel substituted indigoids” (Bioorg Med Chem, 2009).
